# Patent publication US10172846
# Where two headings read alike, the source gives them in different places.
# What was measured:
# [1] = rcm bond, 14-membered ring
# [2] = rcm bond, Hoveyda-Grubbs 2nd generation
# [3] = from (1R,2)-1-{[(1R,2R,4R)-2-(N′-tert-Butoxycarbonyl-N-hept-6-enyl-hydrazinocarbonyl)-4-(7-methoxy-2-phenyl-quinolin-4-yloxy)-cyclopentanecarbonyl]-amino}-2-vinyl-cyclopropanecarboxylic acid ethyl ester; rcm bond; 15-membered ring; Hoveyda-Grubbs II; DCM; 7.0 mM
compound,measurement,setting,value
CCOC(=O)C12CC1C=CCCCCNC(=O)C1CC(Oc3cc(-c4ccccc4)nc4cc(OC)ccc34)CC1C(=O)N2 (centres unmarked),"ring closure, isolated yield","[1]; from 1-{[2-Hex-5-enylcarbamoyl-4-(7-methoxy-2-phenyl-quinolin-4-yloxy)-cyclopentanecarbonyl]-amino}-2-vinyl-cycloprpanecarboxylic acid ethyl ester, Hoveyda-Grubbs II, DCM, 5.8 mM",32%
CCOC(=O)[C@@]12C[C@H]1/C=C\CCCCCN(NC(=O)OC(C)(C)C)C(=O)[C@@H]1C[C@H](Oc3cc(-c4ccccc4)nc4cc(OC)ccc34)C[C@H]1C(=O)N2,"ring closure, yield of all isomers","[2]; from C=CCCCCCN(NC(=O)OC(C)(C)C)C(=O)[C@@H]1C[C@H](Oc2cc(-c3ccccc3)nc3cc(OC)ccc23)C[C@H]1C(=O)N[C@]1(C(=O)OCC)C[C@H]1C=C, DCM, 6.97 mM, 40.0 °C, 16.0 h",70%
same,"ring closure, yield after HPLC",[3],70%
CCOC(=O)C12CC1C=CCCCCNC(=O)C1CC(Oc3cc(-c4ccccc4)nc4cc(OC)ccc34)CC1C(=O)N2C (centres unmarked),"ring closure, isolated yield","[1]; from 1-{[2-Hex-5-enyl-methyl-carbamoyl)-4-(7-methoxy-2-phenyl-quinolin-4-yloxy)-cyclopentanecarbonyl]-amino-2-vinyl-cyclopropanecarboxylic add ethyl ester, Hoveyda-Grubbs II, dichloroethane, 2.02 mM",37%
CCOC(=O)[C@@]12C[C@H]1C=CCCCCN(C)C(=O)[C@@H]1C[C@H](Oc3cc(-c4ccccc4)nc4cc(OC)ccc34)C[C@H]1C(=O)N2,"ring closure, yield of all isomers","[2]; from C=CCCCCN(C)C(=O)[C@@H]1C[C@H](Oc2cc(-c3ccccc3)nc3cc(OC)ccc23)C[C@H]1C(=O)N[C@]1(C(=O)OCC)C[C@H]1C=C, DCE, 2.02 mM, 83.0 °C",37%
CCOC(=O)C12CC1C=CCCCCN(C)C(=O)C1CC(OS(=O)(=O)c3ccc(Br)cc3)CC1C(=O)N2 (centres unmarked),"ring closure, isolated yield","[1]; from 1-{(4-(4-Bromo-benzensulphonyloxy-2-(hex-5-enyl-methyl-carbamoyl)-cyclopentanecarbonyl-amino}2-vinyl-cyclopropanecarboxylic add ethyl ester)), Hoveyda-Grubbs I, DCM, 4.2 mM",60%
CN1CCCCC=CC2CC2(C(=O)NS(=O)(=O)C2CC2)NC(=O)C2CC(O)CC2C1=O (centres unmarked),"ring closure, isolated yield","[1]; from 4-Hydroxycyclopentane-1,2-dicarboxylic acid 1-[(1-cyclopropanesulphonylaminocarbonyl-2-vinylcyclopropyl)-amide] 2-(hex-5-enyl-methylamide), Hoveyda-Grubbs II, 1,2-dichloroethane, 5.4 mM, 160.0 °C",26%
CCOC(=O)[C@@]12C[C@H]1C=CCCCCNC(=O)[C@@H]1C[C@H](Oc3cc(-c4ccccc4)nc4cc(OC)ccc34)C[C@H]1C(=O)N2,"ring closure, yield of all isomers","[2]; from C=CCCCCNC(=O)[C@@H]1C[C@H](Oc2cc(-c3ccccc3)nc3cc(OC)ccc23)C[C@H]1C(=O)N[C@]1(C(=O)OCC)C[C@H]1C=C, DCM, 5.8 mM, 40.0 °C",32%
